Reference: patent US4656269A, “Histidine derivatives” (Kissei Pharmaceutical Co., Ltd., priority 1986, dated 1987)

Legend:
human renin = target: T1, human renin (Homo sapiens, UniProt P00797); test: Human renin-sheep renin substrate reaction system in vitro (angiotensin I by radioimmunoassay); format: biochemical; details: pH 7.4, 15 minutes, 37° C., read-out: IC50 (molar concentration)
T1 sequence (P00797 67-406): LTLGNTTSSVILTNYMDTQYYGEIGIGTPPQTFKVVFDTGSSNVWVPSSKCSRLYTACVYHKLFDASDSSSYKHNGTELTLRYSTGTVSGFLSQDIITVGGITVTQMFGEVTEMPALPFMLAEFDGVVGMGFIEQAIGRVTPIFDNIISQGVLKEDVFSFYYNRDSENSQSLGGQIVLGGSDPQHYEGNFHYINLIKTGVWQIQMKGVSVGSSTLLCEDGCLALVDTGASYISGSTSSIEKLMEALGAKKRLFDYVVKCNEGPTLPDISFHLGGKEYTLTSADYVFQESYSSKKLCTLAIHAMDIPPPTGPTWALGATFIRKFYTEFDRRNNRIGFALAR
Method: Human renin-sheep renin substrate reaction system in vitro
To a mixture containing 200 μl of a 125 mM pyrophosphate buffer (pH 7.4), 25 μl of a 20 mM aqueous solution of L-phenylalanyl-L-alanyl-L-prolin as an angiotensin cnverting enzyme inhibitor, 50 μl of semipurified sheep renin substrate (2000 ng angiotensin I/ml), 50 μl of dimethyl sulfoxide solution of an amino acid compound of the present invention and 150 μl of deionized water was added 25 μl of purified human renin (20-30 ng angiotensin I/ml/hr. The mixture was incubated for 15 minutes on a water bath at 37° C., and the reaction mixture was allowed to stand for 5 minutes on a water bath at 100° C. to stop the reaction. After cooling, 200 μl of the solution were taken up and the amount of angiotensin I produced by the addition of renin was determined by radiommunoassay. The inhibitory effect was calculated by the following equation.
As a control, the same procedure as above was carried out by using 50 μl of dimethyl sulfoxide alone in place of the 50 μl of dimethyl sulfoxide solution containing an amino acid compound of the present invention.

[1] = target: T2, renin in human high renin plasma (Homo sapiens, UniProt P00797); test: Renin inhibitory effect in a human high renin plasma (angiotensin I by radioimmunoassay); format: biochemical; details: 60 minutes, 37° C., read-out: IC50 (molar concentration)
T2 construct: 500 μl of human high renin plasma; from tissue; host or cells: human high renin plasma
T2 sequence (P00797 67-406): T1 sequence (P00797 67-406)
Method: A mixture of 350 μl of a 0.5 M phosphate buffer containing 14 mM EDTA 2Na and a 0.3% neomycin sulfate, which was adjusted to the pH of 7, 50 μl of a 20 mM an aqueous solution of L-phenylalanyl-L-alanyl-L-prolin as an angiotensin converting enzyme inhibitor and 100 μl of dimethyl sulfoxide solution containing an amino acid compound of the present invention was added to 500 μl of human high renin plasma, and 200 μl of the mixture was incubated at 4° C. in an ice bath, and remaining mixture (800 μl ) was incubated for 60 minutes at 37° C. in a water bath. A 200 μl sample was withdrawn from the incubated mixture, chilled immediately in an ice bath, and the amount (A) of angiotensin I produced was determined by radioimmunoassay.
Also, the amount (B) of angiotensin I produced in the incubated mixture at 4° C. in an ice bath was determined by radioimmunoassy.
As a control, the same procedure as above was carried out by using 100 μl of dimethyl sulfoxide alone in place of the 100 μl of dimethyl sulfoxide solution containing an amino acid compound of the present invention.
The renin inhibitory effect in human plasa was calculated by taking the amount of angiotensin I (A) from the amount of angiotensin I (B). The inhibotory effect was calculated by the following equation.

Row | SMILES | IC50 (human renin) [µM] | IC50 [1] [µM]
1 | COC(=O)C(O)[C@H](CC(C)C)NC(=O)[C@H](Cc1c[nH]cn1)NC(=O)C(CC(=O)N(C)C)Cc1cccc2ccccc12 (mixture of isomers) [Methyl (2RS, 3S)-3-{N-[2-(1-naphthylmethyl)-3-(dimethylcarbamoyl)propionyl]-L-histidyl}amino-2-hydroxy-5-methylhexanoate] | 0.078 | 0.025
2 | CC(C)C[C@H](NC(=O)[C@H](Cc1c[nH]cn1)NC(=O)C(CC(=O)N1CCOCC1)Cc1cccc2ccccc12)[C@@H](O)CC(=O)OC(C)C (stereo partly drawn) [Isopropyl N-[2-(1-naphthylmethyl)-3-(morphlinocarbonyl)propionyl]-L-histidylstatinate] | 0.066 | 
3 | COC(=O)C[C@H](O)[C@H](CC(C)C)NC(=O)[C@H](Cc1c[nH]cn1)NC(=O)C(CC(=O)N1CCOCC1)Cc1cccc2ccccc12 (stereo partly drawn) [Methyl N-[2-(1-naphthylmethyl)-3-(morpholinocarbonyl)propionyl]-L-histidylstatinate] |  | 0.15
